# From patent US10167262B2, “Herbicidal substituted 3-arylpyrazoles” (FMC CORPORATION, priority 2014, dated 2019)
# Assays:
# Format in all cases: in vivo
# [1] = system: chickweed (common chickweed, Stellaria media); assay: Test C postemergence greenhouse test, plant response rating 0-100; conditions: for Plant response rating, Chickweed: scale 0 to 100
# Procedure, shortened: (§1)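 Plants rated visually 0 (no effect) to 100 (complete control) against untreated controls after 13 to 15 days in the greenhouse, dash indicating no result. Treatment was a postemergence application of formulated chemicals at the 1- to 4-leaf stage (2 to 18 cm), in pots of peat-vermiculite medium.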
# kochia (Kochia scoparia) = assay: as above; conditions: for Plant response rating, Kochia: scale 0 to 100
# Procedure, shortened: as §1
# wild oat (Avena fatua) = assay: as above; conditions: for Plant response rating, Oat, Wild: scale 0 to 100
# Procedure, shortened: as §1
# soybean (Glycine max) = assay: Test C pre-/postemergence greenhouse test, plant response rating 0-100
# Procedure, shortened: (§2)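 Visual rating vs controls after 13–15 d greenhouse; 0 = no effect, 100 = complete control. Pre: seeds in loam/sand, treated at planting. Post: seedlings 2–18 cm (1–4 leaf) in peat-based mix. Compounds in surfactant-containing non-phytotoxic solvent.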
# [2] = system: pigweed (Amaranthus retroflexus); assay: as above
# Procedure, shortened: as §2
# [3] = system: johnsongrass (Sorghum halepense); assay: as above
# Procedure, shortened: as §2
# [4] = system: giant foxtail (Setaria faberii); assay: as above
# Procedure, shortened: as §2
# corn (Zea mays) = assay: as above
# Procedure, shortened: as §2
# [5] = system: lambsquarters (Chenopodium album); assay: as above
# Procedure, shortened: as §2
# [6] = system: winter wheat (Triticum aestivum); assay: as above
# Procedure, shortened: as §2
# [7] = system: morningglory (Ipomoea coccinea); assay: as above
# Procedure, shortened: as §2
# [8] = system: velvetleaf (Abutilon theophrasti); assay: as above
# Procedure, shortened: as §2
# [9] = system: blackgrass (Alopecurus myosuroides); assay: as above
# Procedure, shortened: as §2
# [10] = Postemergence, 250 g ai/ha, scale 0 to 100
# [11] = Postemergence, 500 g ai/ha, scale 0 to 100
# [12] = Postemergence, 125 g ai/ha, scale 0 to 100
smiles,measurement,setting,value
CCn1cc(C(=O)c2cccs2)c(-c2cc(Cl)cc(Cl)c2)n1 [Compound 18],"Plant response rating (0 to 100), Chickweed",[1]; 62 g ai/ha,50
same,"Plant response rating (0 to 100), Chickweed",[1]; 125 g ai/ha,80
same,"Plant response rating, Chickweed",[1]; 250 g ai/ha,98
same,"Plant response rating, Chickweed",[1]; 500 g ai/ha,100
same,"Plant response rating (0 to 100), Kochia",kochia (Kochia scoparia); 62 g ai/ha,20
same,"Plant response rating (0 to 100), Kochia",kochia (Kochia scoparia); 125 g ai/ha,40
same,"Plant response rating, Kochia",kochia (Kochia scoparia); 250 g ai/ha,45
same,"Plant response rating, Kochia",kochia (Kochia scoparia); 500 g ai/ha,60
same,"Plant response rating (0 to 100), Oat, Wild",wild oat (Avena fatua); 62 g ai/ha,0
same,"Plant response rating (0 to 100), Oat, Wild",wild oat (Avena fatua); 125 g ai/ha,0
same,"Plant response rating, Oat, Wild",wild oat (Avena fatua); 250 g ai/ha,0
same,"Plant response rating, Oat, Wild",wild oat (Avena fatua); 500 g ai/ha,0
same,"Plant response rating (0 to 100), Soybean","soybean (Glycine max); Postemergence, 62 g ai/ha",5
same,"Plant response rating (0 to 100), Soybean","soybean (Glycine max); Postemergence, 125 g ai/ha",15
same,"Plant response rating, Soybean",soybean (Glycine max); [10],20
same,"Plant response rating, Soybean",soybean (Glycine max); [11],20
same,"Plant response rating (0 to 100), Pigweed","[2]; Postemergence, 62 g ai/ha",85
same,"Plant response rating (0 to 100), Pigweed","[2]; Postemergence, 125 g ai/ha",100
same,"Plant response rating, Pigweed",[2]; [10],100
same,"Plant response rating, Pigweed",[2]; [11],100
same,"Plant response rating (0 to 100), Johnsongrass","[3]; Postemergence, 62 g ai/ha",0
same,"Plant response rating, Johnsongrass",[3]; [10],0
same,"Plant response rating, Johnsongrass",[3]; [11],5
same,"Plant response rating (0 to 100), Foxtail, Giant","[4]; Postemergence, 62 g ai/ha",5
same,"Plant response rating (0 to 100), Foxtail, Giant","[4]; Postemergence, 125 g ai/ha",10
same,"Plant response rating, Foxtail, Giant",[4]; [10],15
same,"Plant response rating, Foxtail, Giant",[4]; [11],20
same,"Plant response rating (0 to 100), Corn","corn (Zea mays); Postemergence, 125 g ai/ha",5
same,"Plant response rating, Corn",corn (Zea mays); [10],10
same,"Plant response rating (0 to 100), Lambsquarters","[5]; Postemergence, 62 g ai/ha",60
same,"Plant response rating (0 to 100), Lambsquarters","[5]; Postemergence, 125 g ai/ha",85
same,"Plant response rating, Lambsquarters",[5]; [10],85
same,"Plant response rating, Lambsquarters",[5]; [11],90
same,"Plant response rating (0 to 100), Wheat","[6]; Postemergence, 62 g ai/ha",0
same,"Plant response rating (0 to 100), Wheat","[6]; Postemergence, 125 g ai/ha",0
same,"Plant response rating, Wheat",[6]; [10],0
same,"Plant response rating, Wheat",[6]; [11],5
same,"Plant response rating (0 to 100), Morningglory","[7]; Postemergence, 62 g ai/ha",5
same,"Plant response rating (0 to 100), Morningglory","[7]; Postemergence, 125 g ai/ha",10
same,"Plant response rating, Morningglory",[7]; [10],20
same,"Plant response rating, Morningglory",[7]; [11],45
same,"Plant response rating (0 to 100), Velvetleaf","[8]; Postemergence, 62 g ai/ha",50
same,"Plant response rating (0 to 100), Velvetleaf","[8]; Postemergence, 125 g ai/ha",65
same,"Plant response rating, Velvetleaf",[8]; [10],70
same,"Plant response rating, Velvetleaf",[8]; [11],80
same,"Plant response rating (0 to 100), Blackgrass","[9]; Postemergence, 62 g ai/ha",0
same,"Plant response rating, Blackgrass",[9]; [12],0
same,"Plant response rating, Blackgrass",[9]; [10],0
same,"Plant response rating, Blackgrass",[9]; [11],0
O=C(c1cncc(F)c1)c1c[nH]nc1-c1cc(Cl)cc(Cl)c1 [Compound 19],"Plant response rating (0 to 100), Chickweed",[1]; 31 g ai/ha,95
same,"Plant response rating (0 to 100), Chickweed",[1]; 62 g ai/ha,80
same,"Plant response rating (0 to 100), Chickweed",[1]; 125 g ai/ha,98
same,"Plant response rating, Chickweed",[1]; 250 g ai/ha,98
same,"Plant response rating (0 to 100), Kochia",kochia (Kochia scoparia); 62 g ai/ha,80
same,"Plant response rating (0 to 100), Kochia",kochia (Kochia scoparia); 125 g ai/ha,85
same,"Plant response rating, Kochia",kochia (Kochia scoparia); 250 g ai/ha,90
same,"Plant response rating (0 to 100), Oat, Wild",wild oat (Avena fatua); 62 g ai/ha,0
same,"Plant response rating (0 to 100), Oat, Wild",wild oat (Avena fatua); 125 g ai/ha,0
same,"Plant response rating, Oat, Wild",wild oat (Avena fatua); 250 g ai/ha,0
same,"Plant response rating (0 to 100), Soybean","soybean (Glycine max); Postemergence, 62 g ai/ha",0
same,"Plant response rating (0 to 100), Soybean","soybean (Glycine max); Postemergence, 125 g ai/ha",0
same,"Plant response rating, Soybean",soybean (Glycine max); [10],0
same,"Plant response rating, Soybean","soybean (Glycine max); Preemergence, 62 g ai/ha",0
same,"Plant response rating, Soybean","soybean (Glycine max); Preemergence, 125 g ai/ha",0
same,"Plant response rating, Soybean","soybean (Glycine max); Preemergence, 250 g ai/ha",85
same,"Plant response rating (0 to 100), Pigweed","[2]; Postemergence, 62 g ai/ha",85
same,"Plant response rating (0 to 100), Pigweed","[2]; Postemergence, 125 g ai/ha",90
same,"Plant response rating, Pigweed",[2]; [10],95
same,"Plant response rating, Pigweed","[2]; Preemergence, 31 g ai/ha",75
same,"Plant response rating, Pigweed","[2]; Preemergence, 62 g ai/ha",85
same,"Plant response rating, Pigweed","[2]; Preemergence, 125 g ai/ha",100
same,"Plant response rating, Pigweed","[2]; Preemergence, 250 g ai/ha",100
same,"Plant response rating (0 to 100), Johnsongrass","[3]; Postemergence, 62 g ai/ha",0
same,"Plant response rating (0 to 100), Johnsongrass","[3]; Postemergence, 125 g ai/ha",0
same,"Plant response rating, Johnsongrass",[3]; [10],0
same,"Plant response rating, Johnsongrass","[3]; Preemergence, 31 g ai/ha",0
same,"Plant response rating, Johnsongrass","[3]; Preemergence, 62 g ai/ha",0
same,"Plant response rating, Johnsongrass","[3]; Preemergence, 125 g ai/ha",0
same,"Plant response rating, Johnsongrass","[3]; Preemergence, 250 g ai/ha",0
same,"Plant response rating (0 to 100), Foxtail, Giant","[4]; Postemergence, 31 g ai/ha",0
same,"Plant response rating (0 to 100), Foxtail, Giant","[4]; Postemergence, 62 g ai/ha",0
same,"Plant response rating (0 to 100), Foxtail, Giant","[4]; Postemergence, 125 g ai/ha",5
same,"Plant response rating, Foxtail, Giant",[4]; [10],5
same,"Plant response rating, Foxtail, Giant","[4]; Preemergence, 31 g ai/ha",0
same,"Plant response rating, Foxtail, Giant","[4]; Preemergence, 62 g ai/ha",0
same,"Plant response rating, Foxtail, Giant","[4]; Preemergence, 125 g ai/ha",0
same,"Plant response rating, Foxtail, Giant","[4]; Preemergence, 250 g ai/ha",0
same,"Plant response rating (0 to 100), Corn","corn (Zea mays); Postemergence, 31 g ai/ha",0
same,"Plant response rating (0 to 100), Corn","corn (Zea mays); Postemergence, 62 g ai/ha",0
same,"Plant response rating (0 to 100), Corn","corn (Zea mays); Postemergence, 125 g ai/ha",0
same,"Plant response rating, Corn",corn (Zea mays); [10],0
same,"Plant response rating, Corn","corn (Zea mays); Preemergence, 31 g ai/ha",0
same,"Plant response rating, Corn","corn (Zea mays); Preemergence, 62 g ai/ha",0
same,"Plant response rating, Corn","corn (Zea mays); Preemergence, 125 g ai/ha",0
same,"Plant response rating, Corn","corn (Zea mays); Preemergence, 250 g ai/ha",0
same,"Plant response rating (0 to 100), Lambsquarters","[5]; Postemergence, 62 g ai/ha",10
same,"Plant response rating (0 to 100), Lambsquarters","[5]; Postemergence, 125 g ai/ha",15
same,"Plant response rating, Lambsquarters",[5]; [10],10
same,"Plant response rating, Lambsquarters","[5]; Preemergence, 31 g ai/ha",100
same,"Plant response rating, Lambsquarters","[5]; Preemergence, 62 g ai/ha",100
same,"Plant response rating, Lambsquarters","[5]; Preemergence, 125 g ai/ha",100
same,"Plant response rating, Lambsquarters","[5]; Preemergence, 250 g ai/ha",100
same,"Plant response rating (0 to 100), Wheat","[6]; Postemergence, 62 g ai/ha",0
same,"Plant response rating (0 to 100), Wheat","[6]; Postemergence, 125 g ai/ha",0
same,"Plant response rating, Wheat",[6]; [10],0
same,"Plant response rating, Wheat","[6]; Preemergence, 62 g ai/ha",0
same,"Plant response rating, Wheat","[6]; Preemergence, 125 g ai/ha",0
same,"Plant response rating, Wheat","[6]; Preemergence, 250 g ai/ha",0
same,"Plant response rating (0 to 100), Morningglory","[7]; Postemergence, 62 g ai/ha",0
same,"Plant response rating (0 to 100), Morningglory","[7]; Postemergence, 125 g ai/ha",0
same,"Plant response rating, Morningglory",[7]; [10],0
same,"Plant response rating, Morningglory","[7]; Preemergence, 31 g ai/ha",0
same,"Plant response rating, Morningglory","[7]; Preemergence, 62 g ai/ha",0
same,"Plant response rating, Morningglory","[7]; Preemergence, 125 g ai/ha",0
same,"Plant response rating, Morningglory","[7]; Preemergence, 250 g ai/ha",10
same,"Plant response rating (0 to 100), Velvetleaf","[8]; Postemergence, 62 g ai/ha",25
same,"Plant response rating (0 to 100), Velvetleaf","[8]; Postemergence, 125 g ai/ha",40
same,"Plant response rating, Velvetleaf",[8]; [10],55
same,"Plant response rating, Velvetleaf","[8]; Preemergence, 62 g ai/ha",40
same,"Plant response rating, Velvetleaf","[8]; Preemergence, 125 g ai/ha",75
same,"Plant response rating, Velvetleaf","[8]; Preemergence, 250 g ai/ha",98
same,"Plant response rating (0 to 100), Blackgrass","[9]; Postemergence, 31 g ai/ha",0
same,"Plant response rating (0 to 100), Blackgrass","[9]; Postemergence, 62 g ai/ha",0
same,"Plant response rating, Blackgrass",[9]; [12],0
same,"Plant response rating, Blackgrass",[9]; [10],0
same,"Plant response rating, Blackgrass","[9]; Preemergence, 31 g ai/ha",10
same,"Plant response rating, Blackgrass","[9]; Preemergence, 62 g ai/ha",0
same,"Plant response rating, Blackgrass","[9]; Preemergence, 125 g ai/ha",0
same,"Plant response rating, Blackgrass","[9]; Preemergence, 250 g ai/ha",50
